Data published in paper PMC11280325, “Design, Synthesis, and Characterization of Novel Thiazolidine-2,4-Dione-Acridine Hybrids as Antitumor Agents” (Molecules, 2024).

How the values were obtained:
Hep G2 = experiment: MTT assay, Hep G2; type: cell-based, human; conditions: Homo sapiens, HepG2, 48 h, hepatocellular carcinoma, 48 h incubation
Protocol: (§1) The human cancer cell lines HeLa (cervical adenocarcinoma), HCT116 (colorectal adenocarcinoma), A2780 (human ovarian adenocarcinoma), A2780cis (human ovarian adenocarcinoma cisplatin-resistant), Jurkat (acute T-lymphoblastic leukemia), and Hep G2 (hepatocellular carcinoma) were cultured in an RPMI 1640 growth medium (Biosera, Kansas City, MO, USA). The cancer cell lines MDA-MB-231 (triple-negative breast adenocarcinoma), A2058 (human melanoma), U87 (human glioblastoma), PATU 8902 (pancreas adenocarcinoma), and A549 (human lung adenocarcinoma) were cultured in a DMEM medium (Biosera, Kansas City, MO, USA). The media were supplemented with 10% fetal bovine serum (FBS) (Invitrogen, Carlsbad, CA, USA) and 1× HyClone™ Antibiotic/Antimycotic Solution (GE Healthcare, Piscataway, NJ, USA).
(§2) To evaluate the IC50 (half-maximal inhibitory concentration) and confirm the antiproliferative activity of the tested substances, we employed the colorimetric MTT assay (3-(4,5-dimethylthiazol-2-yl)-2,5-diphenyltetrazolium bromide) (Sigma-Aldrich Chemie, Steinheim, Germany). The cell lines were seeded in 96-well plates at a density of 5 × 10^3 to 10 × 10^3 cells per well. After 24 h, the tested substances, dissolved in the cultivation medium, were added to the cells at final concentrations of 5, 10, 20, and 50 µmol/L. The cells were then incubated for 48 h under standard cultivation conditions. Following the incubation period, MTT was added to each well. The MTT was metabolized by the cells into insoluble formazan crystals, which were subsequently dissolved by adding 100 µL of 10% SDS. After another 24 h, the absorbance was measured at a wavelength of 540 nm using the automated Cytation™ 3 Cell Imaging Multi-Mode Reader (Biotek, Winooski, VT, USA). The experiments were performed in at least three independent repetitions. IC50 values were calculated using a nonlinear regression method.

Bj-5ta = experiment: MTT assay, BJ-5ta non-cancerous fibroblasts; type: cell-based, human; conditions: Homo sapiens, Fibroblast, 48 h, non-cancerous dermal fibroblasts, 48 h incubation
Protocol: (§3) The non-cancerous cell line MCF-10A (human epithelial breast cells) was cultured in a DMEM F12 medium supplemented with 10% FBS (Invitrogen, Carlsbad, CA, USA), 1× HyClone™ Antibiotic/Antimycotic Solution (GE Healthcare, Piscataway, NJ, USA), insulin, hEGF, and hydrocortisone. The BJ-5ta cells (human dermal fibroblasts) were cultured in a DMEM-M199 4:1 medium mixture, supplemented with 10% FBS and hygromycin B (0.01 mg/mL). The cells were maintained under standard conditions with an atmosphere containing 5% CO2 at 37 °C. Cell viability, estimated by trypan blue exclusion, was consistently greater than 95% before each experiment.
as §2

A549 = experiment: MTT assay, A549; type: cell-based, human; conditions: lung adenocarcinoma, 48 h incubation
Protocol: as §1, §2

A2780 = experiment: MTT assay, A2780; type: cell-based, human; conditions: ovarian adenocarcinoma, 48 h incubation
Protocol: as §1, §2

PATU = experiment: MTT assay, PATU 8902; type: cell-based, human; conditions: pancreas adenocarcinoma, 48 h incubation
Protocol: as §1, §2

MCF-10A = experiment: MTT assay, MCF-10A non-cancerous cells; type: cell-based, human; conditions: non-cancerous epithelial breast cells, 48 h incubation
Protocol: as §3, §2

A2058 = experiment: MTT assay, A2058; type: cell-based; conditions: Homo sapiens, A2058, 48 h, human melanoma, 48 h incubation
Protocol: as §1, §2

HCT116 = experiment: MTT assay, HCT116; type: cell-based, human; conditions: colorectal adenocarcinoma, 48 h incubation
Protocol: as §1, §2

HeLa = experiment: MTT assay, HeLa; type: cell-based, human; conditions: cervical adenocarcinoma, 48 h incubation
Protocol: as §1, §2

melting point | IC50 (A549; Homo sapiens, A549, 48 h) [µM] | IC50 (A2780; Homo sapiens, A2780, 48 h) [µM] | IC50 (HCT116) [µM] | IC50 (HeLa) [µM] | IC50 (A549) [µM] | IC50 (HCT116; Homo sapiens, HCT-116, 48 h) [µM] | IC50 (HeLa; Homo sapiens, HeLa, 48 h) [µM] | IC50 (A2780) [µM] | Structure (SMILES) | IC50 (Hep G2) [µM] | IC50 (Bj-5ta) [µM] | IC50 (PATU) [µM] | IC50 (MCF-10A; Homo sapiens, MCF-10A, 48 h) [µM] | IC50 (A2058) [µM] | IC50 (PATU; Homo sapiens, PaTu 8902, 48 h) [µM] | IC50 (MCF-10A) [µM]
260 to 262 °C | > 50 |  | > 50 |  |  |  | 18.7 ± 0.45 | > 50 | COc1cc(/C=C2\SC(=O)N(Cc3c4ccccc4nc4ccccc34)C2=O)ccc1OCC(=O)Nc1ccccc1 [Compound 12a, 2-(4-{[(5Z)-3-[(Acridin-9-yl)methyl]-2,4-dioxo-1,3-thiazolidin-5-ylidene]methyl}-2-methoxyphenoxy)-N-phenylacetamide] | > 50 | > 50 |  |  | > 50 | > 50 | > 50
264 to 265 °C | 34.5 ± 5.4 |  | 10.2 ± 2.1 |  |  |  | 7.3 ± 3.4 | > 50 | COc1cc(NC(=O)COc2ccc(/C=C3\SC(=O)N(Cc4c5ccccc5nc5ccccc45)C3=O)cc2OC)cc(OC)c1 [Compound 12b, 2-(4-{[(5Z)-3-[(Acridin-9-yl)methyl]-2,4-dioxo-1,3-thiazolidin-5-ylidene]methyl}-2-methoxyphenoxy)-N-(3,5-dimethoxyphenyl)acetamide] | > 50 | > 50 |  | 15.6 ± 2.6 | > 50 | > 50 | 
268 to 269 °C | > 50 | > 50 | 15.1 ± 2 |  |  |  | 19.9 ± 2.05 |  | COc1cc(/C=C2\SC(=O)N(Cc3c4ccccc4nc4ccccc34)C2=O)ccc1OCC(=O)Nc1cc(OC)c(OC)c(OC)c1 [Compound 12c, 2-(4-{[(5Z)-3-[(Acridin-9-yl)methyl]-2,4-dioxo-1,3-thiazolidin-5-ylidene]methyl}-2-methoxyphenoxy)-N-(3,4,5-trimethoxyphenyl)acetamide] | > 50 | > 50 |  | > 50 | > 50 | > 50 | 

Continued, compound first:

Structure (SMILES) | melting point | IC50 (A549; Homo sapiens, A549, 48 h) [µM] | IC50 (A2780; Homo sapiens, A2780, 48 h) [µM] | IC50 (HCT116) [µM] | IC50 (HeLa) [µM] | IC50 (A549) [µM] | IC50 (HCT116; Homo sapiens, HCT-116, 48 h) [µM] | IC50 (HeLa; Homo sapiens, HeLa, 48 h) [µM] | IC50 (A2780) [µM] | IC50 (Hep G2) [µM] | IC50 (Bj-5ta) [µM] | IC50 (PATU) [µM] | IC50 (MCF-10A; Homo sapiens, MCF-10A, 48 h) [µM] | IC50 (A2058) [µM] | IC50 (PATU; Homo sapiens, PaTu 8902, 48 h) [µM] | IC50 (MCF-10A) [µM]
O=C(COc1ccc(/C=C2\SC(=O)N(Cc3c4ccccc4nc4ccccc34)C2=O)cc1)Nc1ccccc1C(F)(F)F [Compound 7e, 2-(4-{[(5Z)-3-[(Acridin-9-yl)methyl]-2,4-dioxo-1,3-thiazolidin-5-ylidene]methyl}phenoxy)-N-[2-(trifluoromethyl)phenyl]acetamide] | 256 to 257 °C (dec.) | > 50 | > 50 | 22.3 ± 4.6 | > 50 |  |  |  |  | > 50 | > 50 | > 50 | > 50 | > 50 |  | 
O=C(COc1ccc(/C=C2\SC(=O)N(Cc3c4ccccc4nc4ccccc34)C2=O)cc1)Nc1cccc(C(F)(F)F)c1 [Compound 7f, 2-(4-{[(5Z)-3-[(Acridin-9-yl)methyl]-2,4-dioxo-1,3-thiazolidin-5-ylidene]methyl}phenoxy)-N-[3-(trifluoromethyl)phenyl]acetamide] | 250 to 251 °C (dec.) |  | > 50 |  |  | 16.4 ± 1.85 | 8.8 ± 3.7 | 6.2 ± 1.3 |  | 28.1 ± 5.5 | 32.6 ± 7.4 |  | 9.8 ± 1.9 | > 50 | 11.5 ± 2.06 | 
O=C(COc1ccc(/C=C2\SC(=O)N(Cc3c4ccccc4nc4ccccc34)C2=O)cc1)Nc1cc(C(F)(F)F)cc(C(F)(F)F)c1 [Compound 7g, 2-(4-{[(5Z)-3-[(Acridin-9-yl)methyl]-2,4-dioxo-1,3-thiazolidin-5-ylidene]methyl}phenoxy)-N-[3,5-bis(trifluoromethyl)phenyl]acetamide] | 227 to 228 °C (dec.) | 18.9 ± 3.85 | > 50 | 18 ± 1.2 |  |  |  | 20.9 ± 2.8 |  | > 50 | > 50 |  |  | > 50 | > 50 | > 50
O=C(COc1ccc(/C=C2\SC(=O)N(Cc3cccc4cc5ccccc5nc34)C2=O)cc1)Nc1ccccc1 [Compound 8a, 2-(4-{[(5Z)-3-[(Acridin-4-yl)methyl]-2,4-dioxo-1,3-thiazolidin-5-ylidene]methyl}phenoxy)-N-phenylacetamide] | 258 to 259 °C (dec.) | > 50 | > 50 |  | 21.1 ± 7.2 |  | 26.9 ± 1.85 |  |  | > 50 | > 50 |  | > 50 | > 50 | > 50 | 
COc1cc(NC(=O)COc2ccc(/C=C3\SC(=O)N(Cc4cccc5cc6ccccc6nc45)C3=O)cc2)cc(OC)c1 [Compound 8b, 2-(4-{[(5Z)-3-[(Acridin-4-yl)methyl]-2,4-dioxo-1,3-thiazolidin-5-ylidene]methyl}phenoxy)-N-(3,5-dimethoxyphenyl)acetamide] | 168 to 169 °C (dec.) | > 50 | > 50 |  | 12 ± 2.8 |  | > 50 |  |  | > 50 | > 50 |  | > 50 | > 50 | > 50 | 
COc1cc(NC(=O)COc2ccc(/C=C3\SC(=O)N(Cc4cccc5cc6ccccc6nc45)C3=O)cc2)cc(OC)c1OC [Compound 8c, 2-(4-{[(5Z)-3-[(Acridin-4-yl)methyl]-2,4-dioxo-1,3-thiazolidin-5-ylidene]methyl}phenoxy)-N-(3,4,5-trimethoxyphenyl)acetamide] | 193 to 194 °C (dec.) | > 50 | > 50 |  |  |  | > 50 | > 50 |  | > 50 | > 50 |  | > 50 | > 50 | > 50 | 
O=C(COc1ccc(/C=C2\SC(=O)N(Cc3cccc4cc5ccccc5nc34)C2=O)cc1)Nc1ccc([N+](=O)[O-])cc1 [Compound 8d, 2-(4-{[(5Z)-3-[(Acridin-4-yl)methyl]-2,4-dioxo-1,3-thiazolidin-5-ylidene]methyl}phenoxy)-N-(4-nitrophenyl)acetamide] | > 300 °C (dec.) | > 50 | > 50 |  |  |  | 47.6 ± 3.8 | 44.9 ± 4.2 |  | > 50 | > 50 |  | > 50 | > 50 | > 50 | 
O=C(COc1ccc(/C=C2\SC(=O)N(Cc3cccc4cc5ccccc5nc34)C2=O)cc1)Nc1ccccc1C(F)(F)F [Compound 8e, 2-(4-{[(5Z)-3-[(Acridin-4-yl)methyl]-2,4-dioxo-1,3-thiazolidin-5-ylidene]methyl}phenoxy)-N-[2-(trifluoromethyl)phenyl]acetamide] | 205 to 206 °C (dec.) | > 50 | > 50 | 24.3 ± 3.8 |  |  |  | 43.3 ± 5.2 |  | > 50 | > 50 |  | > 50 | > 50 | > 50 | 
O=C(COc1ccc(/C=C2\SC(=O)N(Cc3cccc4cc5ccccc5nc34)C2=O)cc1)Nc1cccc(C(F)(F)F)c1 [Compound 8f, 2-(4-{[(5Z)-3-[(Acridin-4-yl)methyl]-2,4-dioxo-1,3-thiazolidin-5-ylidene]methyl}phenoxy)-N-[3-(trifluoromethyl)phenyl]acetamide] | 219 to 220 °C (dec.) | > 50 | > 50 |  |  |  | 25.1 ± 7.8 | 27.7 ± 4.6 |  | > 50 | > 50 |  | > 50 | > 50 | > 50 | 
